Test results as given in US20230085307A1, “PYRIDAZINONE COMPOUND AND HERBICIDE” (NISSAN CHEMICAL CORPORATION, priority 2019, published 2023).

Tests used:
rice flat sedge = test: Test Example 3: herbicidal effect by foliage application, Wagner pot (Table 18, symbol E); type: in vivo, rice flat sedge (Cyperus iria); details: for herbicidal effect on rice flat sedge (E): 320 g/ha
How it was run: (§1)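 Plants were sown in alluvial soil held under 0.1–0.5 cm standing water and grown 14 days in a greenhouse at 25–30 °C. An emulsifiable formulation, water-diluted to the set dose, was then sprayed onto the foliage, and effects were scored three weeks later using previously defined criteria.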

Japanese bulrush = test: Test Example 1: herbicidal activity, application before weed generation under submerged conditions (Table 16, symbol B); type: in vivo, Japanese bulrush (Schoenoplectus juncoides); details: amount of applied herbicide 320 g/ha
How it was run: (§2)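 Submerged Wagner pots (alluvial soil, 4 cm water) sown with weed seeds and planted with 2.5-leaf rice seedlings; emulsifiable concentrate diluted in water applied to water surface on sowing day. Held in greenhouse at 25-30 °C; injury scored 0-5 by herbicidal rate after three weeks.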

green foxtail [1] = test: Test Example 4: herbicidal effect by soil treatment (Table 19, symbol G); type: in vivo, green foxtail (Setaria viridis); details: amount of applied herbicide 320 g/ha
How it was run: (§3)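 Seeds were sown in sterilized diluvial soil and covered with about 1.5 cm of soil. An emulsion formulation diluted with water to a predetermined herbicide amount was sprayed evenly onto the soil surface. Plants grew in a greenhouse at 25° C. to 30° C., and the effect was scored three weeks after application using criteria from an earlier test.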

barnyard grass [2] = test: Test Example 4: herbicidal effect by soil treatment (Table 19, symbol H); type: in vivo, barnyard grass (Echinochloa crus-galli); details: amount of applied herbicide 320 g/ha
How it was run: as §3

southern crabgrass = test: Test Example 4: herbicidal effect by soil treatment (Table 19, symbol F); type: in vivo, southern crabgrass (Digitaria ciliaris); details: amount of applied herbicide 320 g/ha
How it was run: as §3

green foxtail [3] = test: Test Example 5: herbicidal effect by foliage application, plastic box (Table 20, symbol G); type: in vivo, green foxtail (Setaria viridis); details: foliage application, 320 g/ha, three weeks after application
How it was run: (§4)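 Plants sown in sterilized diluvial soil and grown 14 days in a greenhouse at 25° C to 30° C, then sprayed on the foliage with the compound's emulsion diluted in water to a predetermined herbicide amount. Injury to weeds and crops scored three weeks after application on a visual rating scale.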

wild oat = test: Test Example 5: herbicidal effect by foliage application, plastic box (Table 20, symbol I); type: in vivo, wild oat (Avena fatua); details: foliage application, 320 g/ha, three weeks after application
How it was run: as §4

redroot pigweed = test: Test Example 4: herbicidal effect by soil treatment (Table 19, symbol N); type: in vivo, redroot pigweed (Amaranthus retroflexus); details: amount of applied herbicide 320 g/ha
How it was run: as §3

oval-leafed pondweed = test: Test Example 1: herbicidal activity, application before weed generation under submerged conditions (Table 16, symbol C); type: in vivo, oval-leafed pondweed (Monochoria vaginalis); details: amount of applied herbicide 320 g/ha
How it was run: as §2

windgrass [4] = test: Test Example 4: herbicidal effect by soil treatment (Table 19, symbol L); type: in vivo, windgrass (Apera spica-venti); details: amount of applied herbicide 320 g/ha
How it was run: as §3

barnyard grass [5] = test: Test Example 3: herbicidal effect by foliage application, Wagner pot (Table 18, symbol H); type: in vivo, barnyard grass (Echinochloa crus-galli); details: for herbicidal effect on barnyard grass (H): 320 g/ha
How it was run: as §1

persian speedwell = test: Test Example 5: herbicidal effect by foliage application, plastic box (Table 20, symbol R); type: in vivo, Persian speedwell (Veronica persica); details: foliage application, 320 g/ha, three weeks after application
How it was run: as §4

barnyard grass [6] = test: Test Example 5: herbicidal effect by foliage application, plastic box (Table 20, symbol H); type: in vivo, barnyard grass (Echinochloa crus-galli); details: foliage application, 320 g/ha, three weeks after application
How it was run: as §4

lambsquarters = test: Test Example 5: herbicidal effect by foliage application, plastic box (Table 20, symbol O); type: in vivo, lambsquarters (Chenopodium album); details: foliage application, 320 g/ha, three weeks after application
How it was run: as §4

Chinese sprangletop = test: Test Example 3: herbicidal effect by foliage application, Wagner pot (Table 18, symbol D); type: in vivo, chinese sprangletop (Leptochloa chinensis); details: for herbicidal effect on Chinese sprangletop (D): 320 g/ha
How it was run: as §1

velvetleaf = test: Test Example 4: herbicidal effect by soil treatment (Table 19, symbol M); type: in vivo, velvetleaf (Abutilon theophrasti); details: amount of applied herbicide 320 g/ha
How it was run: as §3

windgrass [7] = test: Test Example 5: herbicidal effect by foliage application, plastic box (Table 20, symbol L); type: in vivo, windgrass (Apera spica-venti); details: foliage application, 320 g/ha, three weeks after application
How it was run: as §4

[8] = amount of applied herbicide 320 g/ha

Row | Structure (SMILES) | herbicidal effect on E: rice flat sedge (rice flat sedge; [8]) | Herbicidal effect, B: Japanese bulrush (Japanese bulrush) | G: green foxtail, herbicidal effect grade (green foxtail [1]) | H: barnyard grass, herbicidal effect grade (barnyard grass [2]) | F: southern crabgrass, herbicidal effect grade (southern crabgrass) | G: green foxtail, herbicidal effect grade (green foxtail [3]) | I: wild oat, herbicidal effect grade (wild oat) | N: redroot pigweed, herbicidal effect grade (redroot pigweed) | Herbicidal effect, C: oval-leafed pondweed (oval-leafed pondweed) | L: windgrass, herbicidal effect grade (windgrass [4]) | herbicidal effect on H: barnyard grass (barnyard grass [5]; [8]) | R: persian speedwell, herbicidal effect grade (persian speedwell) | H: barnyard grass, herbicidal effect grade (barnyard grass [6]) | O: lambsquarters, herbicidal effect grade (lambsquarters) | herbicidal effect on D: Chinese sprangletop (Chinese sprangletop; [8]) | M: velvetleaf, herbicidal effect grade (velvetleaf) | L: windgrass, herbicidal effect grade (windgrass [7]) | herbicidal effect on rice flat sedge (E) (rice flat sedge) | herbicidal effect on barnyard grass (H) (barnyard grass [5]) | herbicidal effect on Chinese sprangletop (D) (Chinese sprangletop)
1 | CCOC(=O)Oc1c(C)nn(C)c(=O)c1-c1c(-c2ccccc2OC)sc2cc(F)ccc12 [3-024] | 5 (Herbicidal rate of 90% or more (almost completely withered)) | 0 (Herbicidal rate of 5% or less (almost no effect)) | 3 (Herbicidal rate of 40% or more and less than 70%) | 3 (Herbicidal rate of 40% or more and less than 70%) | 3 (Herbicidal rate of 40% or more and less than 70%) | 5 (Herbicidal rate of 90% or more (almost completely withered)) | 3 (Herbicidal rate of 40% or more and less than 70%) | 5 (Herbicidal rate of 90% or more (almost completely withered)) | 0 (Herbicidal rate of 5% or less (almost no effect)) | 3 (Herbicidal rate of 40% or more and less than 70%) | 5 (Herbicidal rate of 90% or more (almost completely withered)) | 1 (Herbicidal rate of 5% or more and less than 20%) | 5 (Herbicidal rate of 90% or more (almost completely withered)) | 4 (Herbicidal rate of 70% or more and less than 90%) | 3 (Herbicidal rate of 40% or more and less than 70%) | 3 (Herbicidal rate of 40% or more and less than 70%) | 5 (Herbicidal rate of 90% or more (almost completely withered)) |  |  | 
2 | CCCC(=O)Oc1c(C)nn(C)c(=O)c1-c1c(-c2ccc(F)cc2OCC)sc2cc(Cl)ccc12 [3-046] |  | 0 (Herbicidal rate of 5% or less (almost no effect)) | 0 (Herbicidal rate of 5% or less (almost no effect)) | 0 (Herbicidal rate of 5% or less (almost no effect)) | 0 (Herbicidal rate of 5% or less (almost no effect)) | 5 (Herbicidal rate of 90% or more (almost completely withered)) | 5 (Herbicidal rate of 90% or more (almost completely withered)) | 5 (Herbicidal rate of 90% or more (almost completely withered)) | 0 (Herbicidal rate of 5% or less (almost no effect)) | 5 (Herbicidal rate of 90% or more (almost completely withered)) |  | 3 (Herbicidal rate of 40% or more and less than 70%) | 5 (Herbicidal rate of 90% or more (almost completely withered)) | 3 (Herbicidal rate of 40% or more and less than 70%) |  | 1 (Herbicidal rate of 5% or more and less than 20%) | 4 (Herbicidal rate of 70% or more and less than 90%) | 5 (Herbicidal rate of 90% or more (almost completely withered)) | 5 (Herbicidal rate of 90% or more (almost completely withered)) | 2 (Herbicidal rate of 20% or more and less than 40%)
3 | CCOc1ccccc1-c1sc2cc(C)ccc2c1-c1c(O)c(C)nn(C)c1=O [3-053] |  | 5 (Herbicidal rate of 90% or more (almost completely withered)) | 5 (Herbicidal rate of 90% or more (almost completely withered)) | 0 (Herbicidal rate of 5% or less (almost no effect)) | 5 (Herbicidal rate of 90% or more (almost completely withered)) | 5 (Herbicidal rate of 90% or more (almost completely withered)) | 5 (Herbicidal rate of 90% or more (almost completely withered)) | 3 (Herbicidal rate of 40% or more and less than 70%) | 4 (Herbicidal rate of 70% or more and less than 90%) | 5 (Herbicidal rate of 90% or more (almost completely withered)) |  | 5 (Herbicidal rate of 90% or more (almost completely withered)) | 5 (Herbicidal rate of 90% or more (almost completely withered)) | 5 (Herbicidal rate of 90% or more (almost completely withered)) |  | 0 (Herbicidal rate of 5% or less (almost no effect)) | 5 (Herbicidal rate of 90% or more (almost completely withered)) | 5 (Herbicidal rate of 90% or more (almost completely withered)) | 5 (Herbicidal rate of 90% or more (almost completely withered)) | 4 (Herbicidal rate of 70% or more and less than 90%)
4 | CCOc1cc(F)ccc1-c1sc2cc(C)ccc2c1-c1c(O)c(C)nn(C)c1=O [3-057] |  | 5 (Herbicidal rate of 90% or more (almost completely withered)) | 4 (Herbicidal rate of 70% or more and less than 90%) | 4 (Herbicidal rate of 70% or more and less than 90%) | 5 (Herbicidal rate of 90% or more (almost completely withered)) | 5 (Herbicidal rate of 90% or more (almost completely withered)) | 5 (Herbicidal rate of 90% or more (almost completely withered)) | 5 (Herbicidal rate of 90% or more (almost completely withered)) | 5 (Herbicidal rate of 90% or more (almost completely withered)) | 5 (Herbicidal rate of 90% or more (almost completely withered)) |  | 5 (Herbicidal rate of 90% or more (almost completely withered)) | 5 (Herbicidal rate of 90% or more (almost completely withered)) | 5 (Herbicidal rate of 90% or more (almost completely withered)) |  | 2 (Herbicidal rate of 20% or more and less than 40%) | 5 (Herbicidal rate of 90% or more (almost completely withered)) | 4 (Herbicidal rate of 70% or more and less than 90%) | 5 (Herbicidal rate of 90% or more (almost completely withered)) | 3 (Herbicidal rate of 40% or more and less than 70%)
5 | CCCC(=O)Oc1c(C)nn(C)c(=O)c1-c1c(-c2ccc(F)cc2OCC)sc2cc(C)ccc12 [3-058] |  | 5 (Herbicidal rate of 90% or more (almost completely withered)) | 2 (Herbicidal rate of 20% or more and less than 40%) | 0 (Herbicidal rate of 5% or less (almost no effect)) | 5 (Herbicidal rate of 90% or more (almost completely withered)) | 5 (Herbicidal rate of 90% or more (almost completely withered)) | 5 (Herbicidal rate of 90% or more (almost completely withered)) | 5 (Herbicidal rate of 90% or more (almost completely withered)) | 3 (Herbicidal rate of 40% or more and less than 70%) | 5 (Herbicidal rate of 90% or more (almost completely withered)) |  | 5 (Herbicidal rate of 90% or more (almost completely withered)) | 5 (Herbicidal rate of 90% or more (almost completely withered)) | 5 (Herbicidal rate of 90% or more (almost completely withered)) |  | 5 (Herbicidal rate of 90% or more (almost completely withered)) | 5 (Herbicidal rate of 90% or more (almost completely withered)) | 5 (Herbicidal rate of 90% or more (almost completely withered)) | 5 (Herbicidal rate of 90% or more (almost completely withered)) | 4 (Herbicidal rate of 70% or more and less than 90%)
